Columns and labels:
canarygrass = assay: Test D preemergence; assay type: in vivo, Phalaris minor; conditions: scale 0 to 100
In short: (§1)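 Postemergence activity was tested on plants at the 1- to 4-leaf stage (2–18 cm) grown in peat-based medium, and preemergence activity on seeds in silt loam, with chemicals in a surfactant-containing non-phytotoxic solvent. Controlled-environment growth lasted 14–21 days before visual 0–100 scoring.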

radish, wild [1] = assay: Test D postemergence; assay type: in vivo, Raphanus raphanistrum; conditions: scale 0 to 100
In short: as §1

pigweed = assay: Test D postemergence; assay type: in vivo, Amaranthus retroflexus; conditions: scale 0 to 100
From the text: (§2) Seeds of plant species selected from bluegrass (annual bluegrass, Poa annua), blackgrass (Alopecurus myosuroides), canarygrass (littleseed canarygrass, Phalaris minor), chickweed (common chickweed, Stellaria media), galium (catchweed bedstraw, Galium aparine), bromegrass, downy (downy bromegrass, Bromus tectorum), field poppy (Papaver rhoeas), field violet (Viola arvensis), foxtail, green (green foxtail, Setaria viridis), deadnettle (henbit deadnettle, Lamium amplexicaule), ryegrass, Italian (Italian ryegrass, Lolium multiflorum), kochia (Kochia scoparia), lambsquarters (Chenopodium album), oilseed rape (Brassica napus), pigweed (redroot pigweed, Amaranthus retroflexus), chamomile (scentless chamomile, Matricaria inodora), speedwell (bird's-eye speedwell, Veronica persica), barley, spring (spring barley, Hordeum vulgare), wheat, spring (spring wheat, Triticum aestivum), buckwheat, wild (wild buckwheat, Polygonum convolvulus), mustard, wild (wild mustard, Sinapis arvensis), oat, wild (wild oat, Avena fatua), radish, wild (wild radish, Raphanus raphanistrum), windgrass (Apera spica-venti), Russian thistle (Salsola kali), barley, winter (winter barley, Hordeum vulgare), and wheat, winter (winter wheat, Triticum aestivum) were planted into a silt loam soil and treated preemergence with test chemicals formulated in a non-phytotoxic solvent mixture which included a surfactant.
(§3) At the same time, these species were planted in pots containing Redi-Earth® planting medium (Scotts Company, 14111 Scottslawn Road, Marysville, Ohio 43041) comprising spaghnum peat moss, vermiculite, wetting agent and starter nutrients and treated with postemergence applications of the test chemicals formulated in the same manner. Plants ranged in height from 2 to 18 cm (1- to 4-leaf stage). Treated plants and controls were maintained in a controlled growth environment for 14 to 21 days after which time all species were compared to controls and visually evaluated. Plant response ratings, summarized in Table D, are based on a scale of 0 to 100 where 0 is no effect and 100 is complete control. A dash (-) response means no test result.

Italian ryegrass = assay: Test F preemergence; assay type: in vivo, Lolium multiflorum
In short: (§4)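 Visual rating 0–100 vs untreated controls (0 = no effect, 100 = complete control) after 14–21 d greenhouse. Pre: seeds in silt loam soil. Post: plants 2–18 cm, 1–4 leaf. Formulation: non-phytotoxic solvent mix + surfactant.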

southern sandbur = assay: Test F preemergence; assay type: in vivo, Cenchrus echinatus
In short: as §4

fall panicum = assay: Test F preemergence; assay type: in vivo, Panicum dichotomiflorum
From the text: (§5) Seeds of plant species selected from corn (Zea mays), soybean (Glycine max), velvetleaf (Abutilon theophrasti), lambsquarters (Chenopodium album), wild poinsettia (Euphorbia heterophylla), pigweed, palmer (palmer pigweed, Amaranthus palmeri), common waterhemp (Amaranthus rudis), surinam grass (Brachiaria decumbens), large crabgrass (Digitaria sanguinalis), crabgrass, Brazil (Brazilian crabgrass, Digitaria horizontalis), fall panicum (Panicum dichotomiflorum), giant foxtail (Setaria faberii), green foxtail (Setaria viridis), goosegrass (Eleusine indica), johnsongrass (Sorghum halepense), common ragweed (Ambrosia elation), barnyardgrass (Echinochloa crus-galli), southern sandbur (Cenchrus echinatus), arrowleaf sida (Sida rhombifolia), Italian ryegrass (Lolium multiflorum), dayflower, VA (Virginia (VA) dayflower, Commelina virginica), field bindweed (Convolvulus arvensis), cocklebur (common cocklebur, Xanthium strumarium), morningglory (Ipomoea coccinea), nightshade (eastern black nightshade, Solanum ptycanthum), kochia (Kochia scoparia), yellow nutsedge (Cyperus esculentus), and hairy beggarticks (Bidens pilosa), were planted into a silt loam soil and treated preemergence with test chemicals formulated in a non-phytotoxic solvent mixture which included a surfactant.
(§6) At the same time, plants from these crop and weed species and also horseweed (Canada horseweed, Conyza canadensis), smartweed (ladysthumb smartweed, Polygonum persicaria), waterhemp_RES1, (ALS & Triazine resistant common waterhemp, Amaranthus rudis), and waterhemp_RES2, (ALS & HPPD resistant common waterhemp, Amaranthus rudis) were treated with postemergence applications of test chemicals formulated in the same manner. Plants ranged in height from 2 to 18 cm for postemergence treatments (1- to 4-leaf stage). Treated plants and controls were maintained in a greenhouse for 14 to 21 days, after which time all species were compared to controls and visually evaluated. Plant response ratings, summarized in Table F, are based on a scale of 0 to 100 where 0 is no effect and 100 is complete control. A dash (-) response means no test result.

goosegrass = assay: Test F preemergence; assay type: in vivo, Eleusine indica
In short: as §4

foxtail, green = assay: Test D postemergence; assay type: in vivo, Setaria viridis; conditions: scale 0 to 100
From the text: as §2, §3

radish, wild [2] = assay: Test D preemergence; assay type: in vivo, Raphanus raphanistrum; conditions: scale 0 to 100
From the text: as §2, §3

lambsquarters = assay: Test F preemergence; assay type: in vivo, Chenopodium album
From the text: as §5, §6

oat, wild = assay: Test D postemergence; assay type: in vivo, Avena fatua; conditions: scale 0 to 100
From the text: as §2, §3

wild poinsettia = assay: Test F preemergence; assay type: in vivo, Euphorbia heterophylla
In short: as §4

buckwheat, wild = assay: Test D postemergence; assay type: in vivo, Polygonum convolvulus; conditions: scale 0 to 100
From the text: as §2, §3

deadnettle = assay: Test D preemergence; assay type: in vivo, Lamium amplexicaule; conditions: scale 0 to 100
From the text: as §2, §3

[3] = Preemergence, 31 g ai/ha, scale 0 to 100
[4] = Preemergence, 62 g ai/ha, scale 0 to 100
[5] = Preemergence, 125 g ai/ha, scale 0 to 100
[6] = preemergence, 8 g ai/ha, scale 0 to 100, 100 is complete control
[7] = preemergence, 16 g ai/ha, scale 0 to 100, 100 is complete control

## CCc1cc(C(=O)NCC(F)(F)F)nn1Cc1ccnc(C(F)(F)F)c1 [Compound 78, 5-ethyl-N-(2,2,2-trifluoroethyl)-1-[[(2-trifluoromethyl)-4-pyridinyl]methyl]-1H-pyrazole-3-carboxamide]
canarygrass; 31 g ai/ha
  Plant response rating, Canarygrass: 15
canarygrass; 62 g ai/ha
  Plant response rating, Canarygrass: 30
canarygrass; 125 g ai/ha
  Plant response rating, Canarygrass: 90
canarygrass; 250 g ai/ha
  Plant response rating, Canarygrass: 100
radish, wild [1]; Postemergence, 31 g ai/ha
  Radish, Wild plant response rating: 40
radish, wild [1]; Postemergence, 125 g ai/ha
  Radish, Wild plant response rating: 60
radish, wild [1]; Postemergence, 250 g ai/ha
  Radish, Wild plant response rating: 75
radish, wild [1]; postemergence, 62 g ai/ha
  Radish, Wild plant response rating: 50
pigweed; Postemergence, 31 g ai/ha
  Pigweed plant response rating: 70
pigweed; Postemergence, 125 g ai/ha
  Pigweed plant response rating: 80
pigweed; Postemergence, 250 g ai/ha
  Pigweed plant response rating: 85
pigweed; postemergence, 62 g ai/ha
  Pigweed plant response rating: 75
Italian ryegrass; [3]
  Plant response rating, Italian Ryegrass: 5
Italian ryegrass; [4]
  Plant response rating, Italian Ryegrass: 60
Italian ryegrass; [5]
  Plant response rating, Italian Ryegrass: 90
Italian ryegrass; [6]
  Plant response rating, Italian Ryegrass: 0
Italian ryegrass; [7]
  Plant response rating, Italian Ryegrass: 0
Southern sandbur; [3]
  Plant response rating, Southern Sandbur: 5
Southern sandbur; [4]
  Plant response rating, Southern Sandbur: 80
Southern sandbur; [5]
  Plant response rating, Southern Sandbur: 95
Southern sandbur; [6]
  Plant response rating, Southern Sandbur: 0
Southern sandbur; [7]
  Plant response rating, Southern Sandbur: 0
Fall panicum; [3]
  Plant response rating, Fall Panicum: 90
Fall panicum; [4]
  Plant response rating, Fall Panicum: 100
Fall panicum; [5]
  Plant response rating, Fall Panicum: 100
Fall panicum; [6]
  Plant response rating, Fall Panicum: 40
Fall panicum; [7]
  Plant response rating, Fall Panicum: 70
goosegrass; [3]
  Plant response rating, Goosegrass: 90
goosegrass; [4]
  Plant response rating, Goosegrass: 90
goosegrass; [5]
  Plant response rating, Goosegrass: 100
goosegrass; [6]
  Plant response rating, Goosegrass: 5
goosegrass; [7]
  Plant response rating, Goosegrass: 40
foxtail, green; Postemergence, 31 g ai/ha
  Foxtail, Green plant response rating: 25
foxtail, green; Postemergence, 125 g ai/ha
  Foxtail, Green plant response rating: 70
foxtail, green; Postemergence, 250 g ai/ha
  Foxtail, Green plant response rating: 80
foxtail, green; postemergence, 62 g ai/ha
  Foxtail, Green plant response rating: 60
radish, wild [2]; 31 g ai/ha
  Plant response rating, Radish, Wild: 100
radish, wild [2]; 62 g ai/ha
  Plant response rating, Radish, Wild: 100
radish, wild [2]; 125 g ai/ha
  Plant response rating, Radish, Wild: 100
radish, wild [2]; 250 g ai/ha
  Plant response rating, Radish, Wild: 100
lambsquarters; [3]
  Plant response rating, Lambsquarters: 100
lambsquarters; [4]
  Plant response rating, Lambsquarters: 100
lambsquarters; [5]
  Plant response rating, Lambsquarters: 100
lambsquarters; [6]
  Plant response rating, Lambsquarters: 50
lambsquarters; [7]
  Plant response rating, Lambsquarters: 65
oat, wild; Postemergence, 31 g ai/ha
  Oat, Wild plant response rating: 15
oat, wild; Postemergence, 125 g ai/ha
  Oat, Wild plant response rating: 25
oat, wild; Postemergence, 250 g ai/ha
  Oat, Wild plant response rating: 40
oat, wild; postemergence, 62 g ai/ha
  Oat, Wild plant response rating: 20
Wild poinsettia; [3]
  Plant response rating, Wild Poinsettia: 50
Wild poinsettia; [4]
  Plant response rating, Wild Poinsettia: 65
Wild poinsettia; [5]
  Plant response rating, Wild Poinsettia: 98
Wild poinsettia; [6]
  Plant response rating, Wild Poinsettia: 0
Wild poinsettia; [7]
  Plant response rating, Wild Poinsettia: 0
buckwheat, wild; Postemergence, 31 g ai/ha
  Buckwheat, Wild plant response rating: 50
buckwheat, wild; Postemergence, 125 g ai/ha
  Buckwheat, Wild plant response rating: 65
buckwheat, wild; Postemergence, 250 g ai/ha
  Buckwheat, Wild plant response rating: 70
buckwheat, wild; postemergence, 62 g ai/ha
  Buckwheat, Wild plant response rating: 60
deadnettle; 31 g ai/ha
  Plant response rating, Deadnettle: 10
deadnettle; 62 g ai/ha
  Plant response rating, Deadnettle: 10
deadnettle; 125 g ai/ha
  Plant response rating, Deadnettle: 25
deadnettle; 250 g ai/ha
  Plant response rating, Deadnettle: 100

## CCCc1cc(C(=O)NCC(F)(F)F)nn1Cc1ccnc(C(F)(F)F)c1 [Compound 105]
canarygrass; 31 g ai/ha
  Plant response rating, Canarygrass: 15
canarygrass; 62 g ai/ha
  Plant response rating, Canarygrass: 60
canarygrass; 125 g ai/ha
  Plant response rating, Canarygrass: 100
canarygrass; 250 g ai/ha
  Plant response rating, Canarygrass: 100
radish, wild [1]; Postemergence, 31 g ai/ha
  Radish, Wild plant response rating: 35
radish, wild [1]; Postemergence, 125 g ai/ha
  Radish, Wild plant response rating: 70
radish, wild [1]; Postemergence, 250 g ai/ha
  Radish, Wild plant response rating: 80
radish, wild [1]; postemergence, 62 g ai/ha
  Radish, Wild plant response rating: 55
pigweed; Postemergence, 31 g ai/ha
  Pigweed plant response rating: 85
pigweed; Postemergence, 125 g ai/ha
  Pigweed plant response rating: 80
pigweed; Postemergence, 250 g ai/ha
  Pigweed plant response rating: 85
pigweed; postemergence, 62 g ai/ha
  Pigweed plant response rating: 75
Italian ryegrass; [3]
  Plant response rating, Italian Ryegrass: 50
Italian ryegrass; [4]
  Plant response rating, Italian Ryegrass: 60
Italian ryegrass; [5]
  Plant response rating, Italian Ryegrass: 80
Italian ryegrass; [6]
  Plant response rating, Italian Ryegrass: 0
Italian ryegrass; [7]
  Plant response rating, Italian Ryegrass: 0
Southern sandbur; [3]
  Plant response rating, Southern Sandbur: 10
Southern sandbur; [4]
  Plant response rating, Southern Sandbur: 75
Southern sandbur; [5]
  Plant response rating, Southern Sandbur: 95
Southern sandbur; [6]
  Plant response rating, Southern Sandbur: 0
Southern sandbur; [7]
  Plant response rating, Southern Sandbur: 0
Fall panicum; [3]
  Plant response rating, Fall Panicum: 100
Fall panicum; [4]
  Plant response rating, Fall Panicum: 100
Fall panicum; [5]
  Plant response rating, Fall Panicum: 100
Fall panicum; [6]
  Plant response rating, Fall Panicum: 75
Fall panicum; [7]
  Plant response rating, Fall Panicum: 80
goosegrass; [3]
  Plant response rating, Goosegrass: 40
goosegrass; [4]
  Plant response rating, Goosegrass: 90
goosegrass; [5]
  Plant response rating, Goosegrass: 98
goosegrass; [6]
  Plant response rating, Goosegrass: 30
goosegrass; [7]
  Plant response rating, Goosegrass: 35
foxtail, green; Postemergence, 31 g ai/ha
  Foxtail, Green plant response rating: 10
foxtail, green; Postemergence, 125 g ai/ha
  Foxtail, Green plant response rating: 70
foxtail, green; Postemergence, 250 g ai/ha
  Foxtail, Green plant response rating: 80
foxtail, green; postemergence, 62 g ai/ha
  Foxtail, Green plant response rating: 65
radish, wild [2]; 31 g ai/ha
  Plant response rating, Radish, Wild: 35
radish, wild [2]; 62 g ai/ha
  Plant response rating, Radish, Wild: 100
radish, wild [2]; 125 g ai/ha
  Plant response rating, Radish, Wild: 100
radish, wild [2]; 250 g ai/ha
  Plant response rating, Radish, Wild: 100
lambsquarters; [3]
  Plant response rating, Lambsquarters: 100
lambsquarters; [4]
  Plant response rating, Lambsquarters: 100
lambsquarters; [5]
  Plant response rating, Lambsquarters: 100
lambsquarters; [6]
  Plant response rating, Lambsquarters: 35
lambsquarters; [7]
  Plant response rating, Lambsquarters: 35
oat, wild; Postemergence, 31 g ai/ha
  Oat, Wild plant response rating: 15
oat, wild; Postemergence, 125 g ai/ha
  Oat, Wild plant response rating: 25
oat, wild; Postemergence, 250 g ai/ha
  Oat, Wild plant response rating: 50
oat, wild; postemergence, 62 g ai/ha
  Oat, Wild plant response rating: 20
Wild poinsettia; [3]
  Plant response rating, Wild Poinsettia: 5
Wild poinsettia; [4]
  Plant response rating, Wild Poinsettia: 60
Wild poinsettia; [5]
  Plant response rating, Wild Poinsettia: 95
Wild poinsettia; [6]
  Plant response rating, Wild Poinsettia: 0
Wild poinsettia; [7]
  Plant response rating, Wild Poinsettia: 0
buckwheat, wild; Postemergence, 31 g ai/ha
  Buckwheat, Wild plant response rating: 55
buckwheat, wild; Postemergence, 125 g ai/ha
  Buckwheat, Wild plant response rating: 70
buckwheat, wild; Postemergence, 250 g ai/ha
  Buckwheat, Wild plant response rating: 80
buckwheat, wild; postemergence, 62 g ai/ha
  Buckwheat, Wild plant response rating: 65
deadnettle; 31 g ai/ha
  Plant response rating, Deadnettle: 5
deadnettle; 125 g ai/ha
  Plant response rating, Deadnettle: 20
deadnettle; 250 g ai/ha
  Plant response rating, Deadnettle: 35
